Test systems include EKVX NSCLC; MDA-MB-231 breast; MDA-MB-435; MOLT-4 leukemia; CAKI-1 renal; OVCAR-4 ovarian; SNB-19 CNS; RPMI-8226 leukemia; COLO 205 colon; T-47D breast.
Assay in all cases: NCI anticancer screen, dose series, 48 h

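Results reflect a 48-hour exposure of cells in 96-well plates to compound at five concentrations. GI50 is the concentration that inhibits growth by half. TGI is the concentration that stops growth completely.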 Bounds are passed on as bounds.

As to `COC1/C=C\C=C(/C)C(=O)Nc2cc3nc4ccc(Br)cc4oc-3c(c2=O)CC(C)CC(OC)C(O)C(C)/C=C(\C)C1OC(N)=O` (stereo not drawn), the TGI in the assay with EKVX NSCLC amounted to 25.9 µM; in the assay on MDA-MB-231 breast, 11.5 µM; in the assay on MDA-MB-435 it was 2.99 µM; with MOLT-4 leukemia it was 0.466 µM; in the assay with CAKI-1 renal it was 16.3 µM; in the assay with OVCAR-4 ovarian, 3.97 µM. For the same compound, the TGI turned out to be 29.4 µM in the assay with SNB-19 CNS, 16 µM in the assay with RPMI-8226 leukemia and 0.169 µM in the assay with COLO 205 colon. Also, the GI50 was 0.0321 µM with MDA-MB-231 breast; 0.0342 µM with MDA-MB-435; 0.0031 µM with MOLT-4 leukemia; 0.00867 µM with RPMI-8226 leukemia; 0.000903 µM in the assay with COLO 205 colon.

On to `N#CCc1ccc(C(C#N)/C(CCCC(=O)Nc2cccc([N+](=O)[O-])c2)=N\NC(=O)NN)cc1` (stereo not drawn), for which the TGI with EKVX NSCLC, with MOLT-4 leukemia, in the assay with CAKI-1 renal, in the assay with OVCAR-4 ovarian, in the assay with SNB-19 CNS and in the assay with RPMI-8226 leukemia was more than 100 µM in each case. Moreover, the TGI in the assay on COLO 205 colon is more than 100 µM.

For the compound `COc1cc(NC(=O)c2cc(OC)c3ccn(C)c3c2)cc2c1C[C@]1(C)CC[C@@H](O)C(C)(C)[C@H]1O2`, the GI50 in the assay on EKVX NSCLC is 11.3 µM; with MDA-MB-231 breast, 7.73 µM; with T-47D breast, 10.3 µM; with MDA-MB-435, 9.08 µM; with MOLT-4 leukemia, 2.98 µM; in the assay with OVCAR-4 ovarian, 37.6 µM. The GI50 was 25.3 µM with SNB-19 CNS, 1.35 µM with RPMI-8226 leukemia and 6.12 µM with COLO 205 colon. Also, the TGI was more than 100 µM in the assay on EKVX NSCLC; 41.8 µM with MDA-MB-231 breast; more than 100 µM in the assay with T-47D breast; 43.6 µM with MDA-MB-435; 15 µM in the assay on MOLT-4 leukemia; more than 100 µM in the assay with OVCAR-4 ovarian. The TGI in the assay on SNB-19 CNS was more than 100 µM; in the assay on RPMI-8226 leukemia it was 6.9 µM; with COLO 205 colon, 51.5 µM.

As to `C1CNCCNCCNCCN1`, the TGI in the assay on EKVX NSCLC, with MOLT-4 leukemia, in the assay with SNB-19 CNS, with RPMI-8226 leukemia and in the assay with COLO 205 colon was more than 100 µM each time.

Turning to `O=C1CCCCCCCCCCC(=O)C2CCOCCOCCOCCC1Cc1cccc(n1)C2`, the TGI in the assay with EKVX NSCLC, with MOLT-4 leukemia, in the assay on CAKI-1 renal, in the assay on OVCAR-4 ovarian, in the assay with SNB-19 CNS and with RPMI-8226 leukemia was more than 100 µM in each case. In the assay with COLO 205 colon, this compound gave a TGI of more than 100 µM.

For `CC(=O)NC1=C(Nc2ccc(C)cc2)C(=O)c2ccccc2C1=O`, the TGI in the assay on EKVX NSCLC is more than 75 µM; with MOLT-4 leukemia it was 56.5 µM; with CAKI-1 renal it was more than 75 µM; in the assay on OVCAR-4 ovarian, 46.8 µM; in the assay on SNB-19 CNS, more than 75 µM; in the assay on RPMI-8226 leukemia it was 31.6 µM. The same compound returned a TGI with COLO 205 colon of 45.3 µM.

Take `COC(=O)/C=C(C)/C=C/c1cc(C(C)=O)c(C)o1`: the TGI in the assay on EKVX NSCLC, in the assay on MOLT-4 leukemia, in the assay with CAKI-1 renal, with OVCAR-4 ovarian, with SNB-19 CNS and in the assay with RPMI-8226 leukemia was more than 100 µM throughout.

With `C=CC[C@H]1C[C@@]2(C)OC[C@H](C(C)C)N2C1=O`, the TGI in the assay on EKVX NSCLC, in the assay on CAKI-1 renal, with OVCAR-4 ovarian, with SNB-19 CNS, in the assay with RPMI-8226 leukemia and in the assay on COLO 205 colon was more than 100 µM each time.

In the case of `O=[N+]([O-])c1ccc(Sc2c3ccccc3nc3ccccc23)cc1`, the TGI with EKVX NSCLC, with MOLT-4 leukemia, in the assay with CAKI-1 renal, in the assay on OVCAR-4 ovarian, in the assay on SNB-19 CNS and with RPMI-8226 leukemia was more than 100 µM throughout. In the assay on COLO 205 colon, this compound had a TGI of more than 100 µM.

As to `NCCCN(CCCN)CCCNCc1c2ccccc2c(CNCCCN(CCCN)CCCN)c2ccccc12`, the TGI in the assay with EKVX NSCLC is 28.4 µM; with MOLT-4 leukemia it was 69.8 µM; in the assay with CAKI-1 renal, 32.7 µM; with OVCAR-4 ovarian, 34 µM; in the assay on SNB-19 CNS it was 30.6 µM; with RPMI-8226 leukemia, 19 µM. The TGI in the assay on COLO 205 colon is 22.5 µM.

Turning to `S=c1[nH]c(=S)c2sc(=S)n(-c3ccccc3)c2[nH]1`, the TGI with EKVX NSCLC, in the assay with MOLT-4 leukemia, in the assay on CAKI-1 renal, with OVCAR-4 ovarian, with SNB-19 CNS and with RPMI-8226 leukemia was more than 100 µM throughout. Moreover, the TGI in the assay with COLO 205 colon was more than 100 µM.

Take `CC1Cc2c(N)nc(NN)nc2NC1=O` (stereo not drawn): the TGI in the assay with EKVX NSCLC, with MOLT-4 leukemia, with SNB-19 CNS, in the assay on RPMI-8226 leukemia and with COLO 205 colon was more than 100 µM throughout.

Regarding `CN(C)NC1=NS(=O)(=O)c2cc3c(cc2S1)N(N(C)C)C(=O)c1cc2c(cc1N(N(C)C)C3=O)SC(NN(C)C)=NS2(=O)=O`, the TGI with EKVX NSCLC, in the assay with T-47D breast, with MOLT-4 leukemia, with CAKI-1 renal, with OVCAR-4 ovarian and in the assay with SNB-19 CNS was more than 10 µM in each case. In addition, the TGI with RPMI-8226 leukemia and with COLO 205 colon was more than 10 µM each time.

For `CCOc1cc2c(cnc3c4cc(OC)c(OC)cc4ccc23)cc1OC`, the TGI in the assay with EKVX NSCLC, in the assay on MOLT-4 leukemia, with CAKI-1 renal, with OVCAR-4 ovarian, in the assay with SNB-19 CNS and with RPMI-8226 leukemia was more than 100 µM each time. In addition, in the assay with COLO 205 colon, the TGI is more than 100 µM.

As to `COC1/C(=C\C(=O)OC(C)(C)C)c2ccccc2N1C(C)=O` (stereo not drawn), the TGI with EKVX NSCLC, in the assay on MOLT-4 leukemia, in the assay with CAKI-1 renal, in the assay with OVCAR-4 ovarian, in the assay with SNB-19 CNS and with RPMI-8226 leukemia was more than 100 µM throughout. In the assay on COLO 205 colon, this compound came in with a TGI of more than 100 µM.

(Values after PubChem BioAssay (NCI).)
